# Laboratory results as given in US12275731B2, “Azaindole inhibitors of wild-type and mutant forms of LRRK2” (DANA-FARBER CANCER INSTITUTE, INC., priority 2018, dated 2025).
# Experiments:
# Test in all cases: KinomeScan profiling
# Assay type in all cases: binding
# [1] = target: T1, ULK2 (Homo sapiens, UniProt Q8IYT8); conditions: ULK2, 1 μM; read-out: % control
# T1 sequence (Q8IYT8 1-1036): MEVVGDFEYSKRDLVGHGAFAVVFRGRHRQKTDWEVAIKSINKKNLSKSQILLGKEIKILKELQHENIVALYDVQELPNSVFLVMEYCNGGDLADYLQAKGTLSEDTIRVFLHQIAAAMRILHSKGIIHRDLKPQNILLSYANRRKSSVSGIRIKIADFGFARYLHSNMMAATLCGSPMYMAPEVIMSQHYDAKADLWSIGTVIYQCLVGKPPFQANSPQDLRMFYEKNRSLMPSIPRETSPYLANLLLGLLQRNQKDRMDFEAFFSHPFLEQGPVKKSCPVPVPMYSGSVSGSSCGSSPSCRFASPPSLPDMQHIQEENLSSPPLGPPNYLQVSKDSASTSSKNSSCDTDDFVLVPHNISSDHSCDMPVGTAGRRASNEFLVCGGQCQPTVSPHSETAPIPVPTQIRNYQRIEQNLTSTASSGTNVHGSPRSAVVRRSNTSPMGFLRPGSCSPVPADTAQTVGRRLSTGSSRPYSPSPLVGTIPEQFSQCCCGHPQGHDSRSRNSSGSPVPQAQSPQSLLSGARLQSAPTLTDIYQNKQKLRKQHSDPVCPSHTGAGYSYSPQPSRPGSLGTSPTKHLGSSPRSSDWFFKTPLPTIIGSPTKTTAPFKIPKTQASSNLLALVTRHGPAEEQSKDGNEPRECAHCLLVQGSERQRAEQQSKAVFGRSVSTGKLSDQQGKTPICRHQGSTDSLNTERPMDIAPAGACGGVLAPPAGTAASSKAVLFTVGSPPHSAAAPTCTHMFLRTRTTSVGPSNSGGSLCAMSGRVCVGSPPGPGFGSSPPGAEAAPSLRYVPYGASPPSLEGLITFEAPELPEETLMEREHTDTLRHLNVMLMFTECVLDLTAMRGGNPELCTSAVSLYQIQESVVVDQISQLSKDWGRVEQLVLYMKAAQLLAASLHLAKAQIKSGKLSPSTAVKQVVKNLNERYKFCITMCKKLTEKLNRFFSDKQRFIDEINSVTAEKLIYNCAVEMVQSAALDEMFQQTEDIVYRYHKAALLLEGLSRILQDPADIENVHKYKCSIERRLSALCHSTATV
# In short: (§1)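 At 1 μM in DMSO, compounds are run through a broad 468-member kinase panel. The luminescent read-out is normalised so that vehicle gives 100% and a positive control gives 0%; any kinase falling below 35% is treated as a target.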
# [2] = target: T2, ASK1 (Homo sapiens, UniProt Q99683); conditions: ASK1, 1 μM; read-out: % control
# T2 construct: purchased KinomeScan®
# T2 sequence (Q99683 1-1374): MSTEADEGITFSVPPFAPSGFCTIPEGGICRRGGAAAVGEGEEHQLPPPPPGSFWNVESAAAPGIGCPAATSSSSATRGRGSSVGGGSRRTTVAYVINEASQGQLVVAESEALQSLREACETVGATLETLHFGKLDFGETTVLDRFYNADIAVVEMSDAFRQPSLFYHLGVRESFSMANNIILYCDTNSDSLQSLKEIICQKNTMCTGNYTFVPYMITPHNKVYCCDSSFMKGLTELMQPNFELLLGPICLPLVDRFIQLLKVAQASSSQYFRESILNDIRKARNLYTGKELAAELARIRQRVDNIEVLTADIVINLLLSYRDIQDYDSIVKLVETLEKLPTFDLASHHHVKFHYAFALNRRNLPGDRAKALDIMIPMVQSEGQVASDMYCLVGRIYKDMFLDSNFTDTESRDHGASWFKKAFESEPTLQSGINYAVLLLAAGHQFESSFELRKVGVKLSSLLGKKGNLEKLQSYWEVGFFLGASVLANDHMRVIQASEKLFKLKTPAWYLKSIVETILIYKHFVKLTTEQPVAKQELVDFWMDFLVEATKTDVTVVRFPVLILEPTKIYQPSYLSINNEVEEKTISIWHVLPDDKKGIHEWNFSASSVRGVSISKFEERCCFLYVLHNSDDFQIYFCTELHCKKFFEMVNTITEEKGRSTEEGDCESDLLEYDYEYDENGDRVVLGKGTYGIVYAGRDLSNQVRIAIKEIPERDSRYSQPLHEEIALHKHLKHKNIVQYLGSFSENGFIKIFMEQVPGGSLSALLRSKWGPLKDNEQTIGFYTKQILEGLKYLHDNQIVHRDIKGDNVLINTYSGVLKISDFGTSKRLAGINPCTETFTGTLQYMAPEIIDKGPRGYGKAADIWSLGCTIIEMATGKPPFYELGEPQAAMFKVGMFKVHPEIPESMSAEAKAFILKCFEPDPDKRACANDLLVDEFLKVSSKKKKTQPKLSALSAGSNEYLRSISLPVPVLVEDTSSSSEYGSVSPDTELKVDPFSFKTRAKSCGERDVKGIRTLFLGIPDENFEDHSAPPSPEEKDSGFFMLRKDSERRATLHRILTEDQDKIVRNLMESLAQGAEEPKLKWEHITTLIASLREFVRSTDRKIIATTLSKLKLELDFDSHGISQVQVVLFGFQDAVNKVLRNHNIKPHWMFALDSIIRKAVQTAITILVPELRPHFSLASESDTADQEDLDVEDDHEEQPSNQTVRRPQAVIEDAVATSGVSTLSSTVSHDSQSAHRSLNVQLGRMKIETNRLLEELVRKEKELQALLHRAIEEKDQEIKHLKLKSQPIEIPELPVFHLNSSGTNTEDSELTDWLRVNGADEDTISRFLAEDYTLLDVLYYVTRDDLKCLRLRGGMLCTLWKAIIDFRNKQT
# In short: as §1
# [3] = target: TIE2 (Homo sapiens, UniProt Q02763); conditions: TIE2, 1 μM; read-out: % control
# Sequence of TIE2 (Q02763 23-1124): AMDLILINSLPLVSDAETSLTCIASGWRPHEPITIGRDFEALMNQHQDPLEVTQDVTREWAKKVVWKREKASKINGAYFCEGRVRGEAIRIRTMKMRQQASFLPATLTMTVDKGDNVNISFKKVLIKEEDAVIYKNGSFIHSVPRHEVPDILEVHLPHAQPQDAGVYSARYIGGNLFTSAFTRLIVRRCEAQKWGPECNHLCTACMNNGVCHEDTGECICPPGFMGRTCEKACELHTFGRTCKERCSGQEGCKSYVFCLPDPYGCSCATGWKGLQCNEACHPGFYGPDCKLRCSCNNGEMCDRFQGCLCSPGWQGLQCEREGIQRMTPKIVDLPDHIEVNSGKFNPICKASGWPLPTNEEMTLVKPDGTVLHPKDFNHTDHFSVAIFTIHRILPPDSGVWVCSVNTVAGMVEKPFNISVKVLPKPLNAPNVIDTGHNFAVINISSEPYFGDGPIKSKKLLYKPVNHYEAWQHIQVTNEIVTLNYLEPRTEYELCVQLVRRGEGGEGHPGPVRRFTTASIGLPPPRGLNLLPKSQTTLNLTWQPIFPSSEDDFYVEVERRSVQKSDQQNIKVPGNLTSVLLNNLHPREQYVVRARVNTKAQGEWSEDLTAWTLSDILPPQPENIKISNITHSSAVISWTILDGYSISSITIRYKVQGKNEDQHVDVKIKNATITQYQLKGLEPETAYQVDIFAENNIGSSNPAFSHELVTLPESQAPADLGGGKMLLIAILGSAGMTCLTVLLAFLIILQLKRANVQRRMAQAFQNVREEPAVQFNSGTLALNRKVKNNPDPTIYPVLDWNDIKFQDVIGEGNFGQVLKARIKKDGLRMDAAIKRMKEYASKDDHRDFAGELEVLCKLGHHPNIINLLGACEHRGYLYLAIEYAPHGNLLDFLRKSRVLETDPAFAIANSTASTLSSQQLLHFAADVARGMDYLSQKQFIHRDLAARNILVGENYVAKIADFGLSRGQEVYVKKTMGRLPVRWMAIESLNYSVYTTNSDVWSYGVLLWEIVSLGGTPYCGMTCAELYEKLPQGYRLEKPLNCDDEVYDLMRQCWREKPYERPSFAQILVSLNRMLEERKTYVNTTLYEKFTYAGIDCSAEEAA
# In short: as §1
# [4] = target: MELK (Homo sapiens, UniProt Q14680); conditions: read-out: % control
# Sequence of MELK (Q14680 whole entry): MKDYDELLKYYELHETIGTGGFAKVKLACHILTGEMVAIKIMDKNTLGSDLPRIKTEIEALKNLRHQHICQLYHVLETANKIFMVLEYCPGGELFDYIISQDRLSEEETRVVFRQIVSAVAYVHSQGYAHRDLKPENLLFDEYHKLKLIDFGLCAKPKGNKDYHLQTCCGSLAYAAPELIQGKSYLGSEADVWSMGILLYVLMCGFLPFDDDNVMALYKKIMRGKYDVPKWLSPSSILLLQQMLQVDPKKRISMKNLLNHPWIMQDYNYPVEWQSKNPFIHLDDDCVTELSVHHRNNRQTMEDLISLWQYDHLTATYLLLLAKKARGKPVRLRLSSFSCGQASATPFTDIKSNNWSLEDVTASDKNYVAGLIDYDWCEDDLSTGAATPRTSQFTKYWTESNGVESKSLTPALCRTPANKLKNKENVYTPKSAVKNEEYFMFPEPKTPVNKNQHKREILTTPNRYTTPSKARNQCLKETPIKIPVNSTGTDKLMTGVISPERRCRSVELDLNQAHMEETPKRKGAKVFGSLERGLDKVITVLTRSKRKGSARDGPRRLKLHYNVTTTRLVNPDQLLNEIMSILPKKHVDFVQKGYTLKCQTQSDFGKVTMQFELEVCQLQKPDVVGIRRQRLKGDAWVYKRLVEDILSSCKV
# In short: as §1
SMILES,remaining binding at 1 µM [1] [%],remaining binding at 1 µM [2] [%],remaining binding at 1 µM [3] [%],remaining binding at 1 µM [4] [%]
"CNc1c(-c2cnn([C@H]3CCN(C(C)=O)C[C@@H]3F)c2)cnc2[nH]cc(Cl)c12 [Compound 77, 1-((3S,4S)-4-(4-(3-chloro-4-(methylamino)-1H-pyrrolo[2,3-b]pyridin-5-yl)-1H-pyrazol-1-yl)-3-fluoropiperidin-1-yl)ethan-1-one]",15,4.3,80,20
"CNc1c(-c2ccc(C(=O)N3CCC(N4CCOCC4)CC3)cc2)cnc2[nH]cc(Cl)c12 [Compound 96, (4-(3-chloro-4-(methylamino)-1H-pyrrolo[2,3-b]pyridin-5-yl)phenyl)(4-morpholinopiperidin-1-yl)methanone]",8.7,5.9,81,16
"O=C(c1ccc(-c2cnc3[nH]cc(Cl)c3c2NC2CCCC2)cc1)N1CCC(N2CCOCC2)CC1 [Compound 101, (4-(3-chloro-4-(cyclopentylamino)-1H-pyrrolo[2,3-b]pyridin-5-yl)phenyl)(4-morpholinopiperidin-1-yl)methanone]",98,94,97,30
